The supplement of paper PMC4862054

How the values were obtained:
Details in all cases: incubation time: 72 h
Hs578T = experiment: drug sensitivity score (DSS), CellTiter-Glo (DSS (AUC-based score)); higher = stronger drug effect (viability inhibition or cytotoxicity); extreme values may be limits of the assay
Method in brief: (§1)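 Breast cancer cell lines (20 µl suspension) were seeded into 384-well plates holding compound at 5 concentrations in 10-fold steps over a compound-specific 10,000-fold range, then incubated 72 h. CellTox Green fluorescence (485/520 nm) was read first, then CellTiter-Glo luminescence after 10 min at room temperature. Each plate was normalised to 0.1 % DMSO and a positive kill control. The drug sensitivity score was calculated from the area under the fitted dose-response curve.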

SK-BR-3 [1] = experiment: as above
Method in brief: as §1

CAL-148 = experiment: as above
Method in brief: as §1

HCC1937 [2] = experiment: as above
Method in brief: as §1

BT-549 = experiment: as above
Method in brief: as §1

MDA-MB-436 = experiment: as above
Method in brief: as §1

MCF-10A = experiment: as above
Method in brief: as §1

CAL-51 [3] = experiment: as above
Method in brief: as §1

MFM-223 [4] = experiment: as above
Method in brief: as §1

MDA-MB-468 [5] = experiment: as above
Method in brief: as §1

CAL-85-1 = experiment: as above
Method in brief: as §1

MDA-MB-453 = experiment: as above
Method in brief: as §1

HCC1143 [6] = experiment: as above
Method in brief: as §1

BT-474 [7] = experiment: as above
Method in brief: as §1

HCC1599 = experiment: as above
Method in brief: as §1

CAL-120 = experiment: normalised viability (% of control), CellTiter-Blue; higher = more viable cells (about 100 = DMSO control)
Method in brief: (§2)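 Each entry is normalised viability at a single listed concentration within a series. It comes from breast cancer cell lines incubated 72 h with compound in 384-well plates, then measured with CellTiter-Blue fluorescence at 560/590 nm. Every plate was normalised between vehicle (100) and a positive kill control (0).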

SK-BR-3 [8] = experiment: as above
Method in brief: as §2

HCC1937 [9] = experiment: as above
Method in brief: as §2

CAL-51 [10] = experiment: as above
Method in brief: as §2

MFM-223 [11] = experiment: as above
Method in brief: as §2

MDA-MB-468 [12] = experiment: as above
Method in brief: as §2

HCC1143 [13] = experiment: as above
Method in brief: as §2

MDA-MB-231 = experiment: as above
Method in brief: as §2

BT-474 [14] = experiment: as above
Method in brief: as §2

HDQ-P1 = experiment: as above
Method in brief: as §2

N.N.[Cl][Pt][Cl] [Cisplatin]
Details	drug sensitivity score
BT-474 [7]	0
BT-549	0
CAL-51 [3]	0
CAL-85-1	0
CAL-148	0
HCC1143 [6]	0
HCC1599	0
HCC1937 [2]	0
Hs578T	0
MCF-10A	0
MDA-MB-436	0
MDA-MB-453	0
MDA-MB-468 [5]	0
MFM-223 [4]	0
SK-BR-3 [1]	0

normalised viability [%]
Details	BT-474 [14]	CAL-51 [10]	CAL-120	HCC1143 [13]	HCC1937 [9]	HDQ-P1	MDA-MB-231	MDA-MB-468 [12]	MFM-223 [11]	SK-BR-3 [8]
3 nM	–	107	–	–	–	116	–	–	–	–
10 nM	115	–	90.3	88.2	87	–	99.2	101	88.5	99.1
30 nM	–	97.9	–	–	–	118	–	–	–	–
100 nM	–	109	–	–	–	111	–	–	–	–
1000 nM	122	–	93.3	89.3	106	–	101	101	91	105
10000 nM	135	–	102	89.2	105	–	104	106	99.1	111

C[C@@H](Oc1cc(-c2cnn(C3CCNCC3)c2)cnc1N)c1c(Cl)ccc(F)c1Cl [Crizotinib]
Details	drug sensitivity score
BT-474 [7]	0
BT-549	0
CAL-51 [3]	0
CAL-85-1	0
CAL-148	0
HCC1143 [6]	0
HCC1599	0
HCC1937 [2]	0
Hs578T	0
MCF-10A	0
MDA-MB-436	0
MDA-MB-453	0
MDA-MB-468 [5]	0.0242
MFM-223 [4]	0
SK-BR-3 [1]	0

normalised viability [%]
Details	BT-474 [14]	CAL-51 [10]	CAL-120	HCC1143 [13]	HCC1937 [9]	HDQ-P1	MDA-MB-231	MDA-MB-468 [12]	MFM-223 [11]	SK-BR-3 [8]
3 nM	–	107	–	–	–	88.4	–	–	–	–
10 nM	94.2	–	90.3	87.8	38.1	–	89.8	107	75.5	97.2
30 nM	–	107	–	–	–	91.3	–	–	–	–
100 nM	–	108	–	–	–	88.6	–	–	–	–
1000 nM	93.3	–	83.4	96.1	89.2	–	63.5	95.3	73	110
10000 nM	10.3	–	9.87	42.5	7.72	–	0.88	8.61	34.1	5.81

CN(C)/N=N/c1[nH]cnc1C(N)=O [Dacarbazine]
Details	drug sensitivity score
BT-474 [7]	0
BT-549	0
CAL-51 [3]	0
CAL-85-1	0
CAL-148	0
HCC1143 [6]	0
HCC1599	0
HCC1937 [2]	0
Hs578T	0
MCF-10A	0
MDA-MB-436	0
MDA-MB-453	0
MDA-MB-468 [5]	0
MFM-223 [4]	0
SK-BR-3 [1]	0

normalised viability [%]
Details	BT-474 [14]	CAL-51 [10]	CAL-120	HCC1143 [13]	HCC1937 [9]	HDQ-P1	MDA-MB-231	MDA-MB-468 [12]	MFM-223 [11]	SK-BR-3 [8]
3 nM	–	92.7	–	–	–	107	–	–	–	–
10 nM	126	–	88.2	76.3	98	–	101	104	90.4	104
30 nM	–	88.9	–	–	–	100	–	–	–	–
100 nM	–	88.9	–	–	–	110	–	–	–	–
1000 nM	122	–	83.8	106	87.3	–	89.3	104	89.3	95.3
10000 nM	119	–	79.5	84.2	98.5	–	99	88.8	104	100

Cc1ccc(-n2nc(C(C)(C)C)cc2NC(=O)Nc2ccc(OCCN3CCOCC3)c3ccccc23)cc1 [Doramapimod]
Details	drug sensitivity score
BT-474 [7]	1.64
BT-549	0
CAL-51 [3]	0
CAL-85-1	0
CAL-148	0
HCC1143 [6]	0
HCC1599	0
HCC1937 [2]	0
Hs578T	0
MCF-10A	0
MDA-MB-436	0
MDA-MB-453	1.59
MDA-MB-468 [5]	2.44
MFM-223 [4]	2.15
SK-BR-3 [1]	0

normalised viability [%]
Details	BT-474 [14]	CAL-51 [10]	CAL-120	HCC1143 [13]	HCC1937 [9]	HDQ-P1	MDA-MB-231	MDA-MB-468 [12]	MFM-223 [11]	SK-BR-3 [8]
3 nM	–	116	–	–	–	88.8	–	–	–	–
10 nM	101	–	95.4	94.2	45.3	–	99.2	96	103	91.1
30 nM	–	105	–	–	–	78	–	–	–	–
100 nM	–	95.7	–	–	–	82.4	–	–	–	–
1000 nM	101	–	81.2	92.1	90.2	–	99	115	92.8	98.2
10000 nM	96.9	–	95.8	90.3	97.9	–	109	119	81.5	97.1

C#Cc1cccc(Nc2ncnc3cc(OCCOC)c(OCCOC)cc23)c1 [Erlotinib]
Details	drug sensitivity score
BT-474 [7]	0
BT-549	0
CAL-51 [3]	2.18
CAL-85-1	7.99
CAL-148	1.84
HCC1143 [6]	0
HCC1599	0
HCC1937 [2]	0
Hs578T	0
MCF-10A	16.3
MDA-MB-436	0.203
MDA-MB-453	0
MDA-MB-468 [5]	0
MFM-223 [4]	0
SK-BR-3 [1]	2.74

normalised viability [%]
Details	BT-474 [14]	CAL-51 [10]	CAL-120	HCC1143 [13]	HCC1937 [9]	HDQ-P1	MDA-MB-231	MDA-MB-468 [12]	MFM-223 [11]	SK-BR-3 [8]
3 nM	–	102	–	–	–	108	–	–	–	–
10 nM	98.5	–	91.4	105	95	–	95	108	97.3	91
30 nM	–	96.1	–	–	–	94	–	–	–	–
100 nM	–	98.8	–	–	–	85	–	–	–	–
1000 nM	90.1	–	95.1	90.7	80.2	–	120	75.2	91.5	91.2
10000 nM	51	–	50.1	68.8	63.6	–	95.5	43.6	54.1	27.6
